{"source": "patent US20220016063A1", "about": "“COMPOSITIONS THAT ENHANCE IRON ABSORPTION AND METHODS OF USE THEREOF” (UNIVERSITY OF FLORDIA RESEARCH FOUNDATION, INCORPORATED, priority 2018, published 2022)", "key": {"DMT1": {"tested_on": "DMT1", "test": "Ligated duodenal loop studies, DMT1 Western blot of BBMV", "set-up": "species or system Swiss-Webster mice", "conditions": "single AA formulation pH 6.5 in duodenal loop, 45 min 37 °C; relative to control (expression set to 1)", "experimental": "Blind loop studies were conducted on 8-10-week-old male Swiss-Webster mice, as they are a commonly used outbred strain. Males were selected for initial screening purposes, but experiments will be repeated in female mice. Mice were sacrificed and duodenal segments (approximately […]) were isolated and flushed with Ringer's buffer. […] After incubation, the luminal liquid was released. […] A standard protocol for isolating BBM protein was performed for Western blot analysis (described below).\nIsolation of Brush-Border Membrane Vesicles (BBMV): A light scrape of the duodenal mucosal was placed in 9.9 mL ice-cold lysis buffer with 0.1 mL Halt Protease Inhibitor Cocktail, EDTA-free 100×. Samples were homogenized on ice using an IKA T25 Ultra Turrax device for 2 min. Following homogenization, 500 μL 1 M MgCl2 was added and the sample was rotated at 4° C. for 10 minutes. Samples were then centrifuged at 10,000 rpm for 25 min using a JA-12 rotor in a Beckman-Coulter ultracentrifuge. The supernatant was transferred to new round-bottom tubes and centrifuged again at 19,000 rpm for 40 minutes using a JA-17 rotor. The remaining pellet after the second centrifugation step contained the BBMVs. The pellet was dissolved in 50 μL Ringer's buffer with protease inhibitor at a final concentration of 1×.\nSodium Dodecyl Sulfate-Polyacrylamide Gel Electrophoresis (SDS-PAGE): Protein samples, each containing 30 μg protein, were mixed with 4× Laemmli buffer and 1 M dithiolthreitol (ratio of buffer to DTT was 20:1) and incubated at 37° C. for 30 minutes. 30 μg of protein was then loaded into each lane of 8% polyacrylamide gels. SDS-PAGE was run at 90 V for 30 minutes and increased to 120 V for the duration of the electrophoresis.\nWestern Blot: Proteins in gels were transferred to PVDF membranes at 60 V for two hours. […] Membranes were then incubated with DMT1 primary antibody (courtesy of François Canonne-Hergaux, French Institute of Health and Medical Research, Bordeaux, France) at a 1:2000 dilution in Odyssey blocking buffer at 4° C. for at least 16 hours. Blots were rinsed with TBST for 15 minutes under fast agitation for a total of three washes. […] Blots were again rinsed with TBST for 15 minutes under fast agitation for a total of three washes. Blots were subsequently imaged and protein band signals were quantified with a Licor Odyssey CLx immunofluorescent instrument. Protein band intensities were then normalized to total protein of each lane stained with Coomassie (Gel Analyzer software) and all data was normalized to respective control lanes on the same blot."}, "[1]": {"tested_on": "duodenal epithelial organ cultures", "test": "Ussing chamber 59Fe flux studies", "set-up": "species or system Swiss-Webster mice", "conditions": "compared to the other single AAs", "experimental": "Ussing chamber technology was utilized to measure Fe flux in the presence of AA formulations. The Ussing chamber was balanced for at least 30 minutes prior to mounting duodenal mouse tissues. Tissues were bathed bilaterally in 10 mL of control or AA-containing buffers, containing 1.5 mM FeSO4.7H2O (“cold” Fe), and were bubbled with a 95% O2 and 5% CO2 gas mixture. Experiments were performed under conditions in which the voltage was clamped to zero, so that there was no net passive diffusion of ions and no driving force for paracellular flux. Duodenal epithelial organ cultures were mounted and equilibrated for approximately 10 minutes and were paired for mucosal-to-serosal and serosal-to-mucosal flux based on similar conductance values. Blank measurements (500 μL) were collected from the “cold” (non-radioactive) side. 15 μCi of ^59Fe (PerkinElmer, catalog #NEZ037500UC) neutralized with N-methyl-D-glucamine (NMDG) was added to each chamber, on either the mucosal or serosal side, depending upon tissue pairing. At 15-minute intervals, 500 μL samples were collected from the “cold” side for 60 minutes, and 500 μL buffer were added back to maintain a fixed volume. […] Radioactivity in the samples was measured using a PerkinElmer gamma counter, and net Fe flux was calculated as Jnet=Jms−Jsm, where Jms is mucosal to serosal flux (absorption) and Jsm is serosal to mucosal flux (secretion). […]"}, "[2]": {"tested_on": "Swiss-Webster mice on an Fe-deficient diet", "test": "Iron depletion-repletion study (blood hemoglobin)", "assay_type": "in vivo", "conditions": "males, 6.3 mM FeSO4 in control formulation, daily 200 μL gavage, 14 days", "experimental": "To establish the amount of iron needed to steadily replete a mouse, the concentration was determined theoretically to be 3.15 mM in a 200 μL gavage dose, based on daily food intake and iron requirement of a rodent (35 mg/kg Fe). Two additional concentrations were included in this study: 1.575 mM and 6.3 mM, which are half and double the theoretical concentration, respectively. A control group was given 0 mM Fe gavage on chow diet to obtain normal Hb values. The Fe was dissolved in control formulation (Table 3). Three-week-old male and female Swiss-Webster mice were placed on an Fe-deficient diet in wire-overhang cages for two weeks. After two weeks baseline hemoglobin (Hb) was measured. Daily gavage began in the evening for 14 days. An additional trial included FeSO4 and ferrous fumarate at 6.3 mM and 12.6 mM per iron source, along with a control group with 0 mM Fe gavage on control diet (50 ppm Fe).\nThree-week-old male and female Swiss-Webster mice were placed on an Fe-deficient diet for two weeks. After two weeks baseline hemoglobin (Hb) was measured and mice were randomized into groups so that average starting Hb values are similar. They were gavaged every evening after a 1.5 hour fast (just before the “active” phase) with a 200 μL volume containing 6.3 mM FeSO4 in control or 4 AA formulations. […] Hemoglobin was measured every three days to track repletion. […]"}}, "data": [{"molecule": "NCCCC[C@H](N)C(=O)O", "note": "[lysine]", "values": [{"measurement": "relative DMT1 protein expression on the BBM", "setting": "DMT1", "result": "lowest relative DMT1 protein expression"}]}, {"molecule": "N[C@@H](CO)C(=O)O", "note": "[serine]", "values": [{"measurement": "relative DMT1 protein expression on the BBM", "setting": "DMT1", "result": "lowest relative DMT1 protein expression"}]}, {"molecule": "NC(=O)CC[C@H](N)C(=O)O", "note": "[glutamine]", "values": [{"measurement": "net Fe flux with individual AAs from the 4 AA formulation", "setting": "[1]", "result": "lowest flux"}]}, {"molecule": "O.O.O.O.O.O.O.O=S(=O)([O-])[O-].[Fe+2]", "note": "[FeSO4]", "values": [{"measurement": "blood hemoglobin during repletion", "setting": "[2]", "result": "steady increase"}]}, {"molecule": "CC(C)[C@H](N)C(=O)O", "note": "[valine]", "values": [{"measurement": "relative DMT1 protein expression on the BBM", "setting": "DMT1", "result": "lowest relative DMT1 protein expression"}]}, {"molecule": "N[C@@H](Cc1ccc(O)cc1)C(=O)O", "note": "[tyrosine]", "values": [{"measurement": "relative DMT1 protein expression on the BBM", "setting": "DMT1", "result": "lowest relative DMT1 protein expression"}]}, {"molecule": "C[C@@H](O)[C@H](N)C(=O)O", "note": "[threonine]", "values": [{"measurement": "relative DMT1 protein expression on the BBM", "setting": "DMT1", "result": "lowest relative DMT1 protein expression"}]}]}
